Data from publication PMC2248166, “Quantitative peptide binding motifs for 19 human and mouse MHC class I molecules derived using positional scanning combinatorial peptide libraries” (Immunome Research, 2008).

Columns and labels:
Format in all cases: binding
HLA A*3201 = HLA A*3201 (Homo sapiens, UniProt P04439, A270S/D101S/D185E/E176V/E277Q/F133L/G103R/G107R/G231S/H175R/I121M/I218V/I322F/K168Q/L105A/L300P/L318F/M331R/P208A/P217A/Q94H/R106L/R138Q/S129P/T104I/T323A/T345S/V100E/V321M/V358M); assay: biochemical
H-2 K^k = H-2 K^k (Mus musculus, UniProt P04223)
HLA B*5401 = HLA B*5401 (Homo sapiens, UniProt P01889, A329T/C349S/D138N/D201E/E176V/E187T/E204Q/E69G/I76V/K202T/L119W/R155S/R180L/S121T/S35A/S48A/V127L/V306I/V36M/Y140L)
HLA B*5802 = HLA B*5802 (Homo sapiens, UniProt P01889, A329T/C349S/D201E/D98Y/E176V/E187L/E204Q/E69T/G107R/I218V/I90N/K202T/L105A/N104I/N87E/Q89R/Q94S/R106L/R155S/R180L/R86G/S101N/S121W/S35A/S48A/V127L/V306I/V36M/Y140S/Y91M)
H-2 K^d = H-2 K^d (Mus musculus, UniProt P01902)
HLA B*1501 = HLA B*1501 (Homo sapiens, UniProt P01889, A329T/A93T/A95T/C349S/D201E/D98Y/E187L/E204Q/E69M/E70A/K202T/N87E/Q94N/R155S/R180W/S121R/S35A/S48A/V306I/V36M/Y140S/Y91S); assay: biochemical
HLA A*6802 = HLA A*6802 (Homo sapiens, UniProt P04439, A269V/D140Y/D185E/E176V/E277Q/E87N/F33Y/G231S/I121R/I166T/I218V/L180W/L300P/L318F/N151K/P208A/P217A/Q86R/R138H/R169H/S129P/T345S/V36M)
HLA B*0801 = HLA B*0801 (Homo sapiens, UniProt P01889, A93T/A95T/D138N/E176V/E187T/K202T/Q94N/R180D/S35A/V36M/Y33D/Y91F); assay: biochemical
HLA A*3001 = HLA A*3001 (Homo sapiens, UniProt P04439, D140H/D185E/E176W/F33S/G80R/H175R/K168Q/R138E/R41S); assay: biochemical
HLA B*5301 = HLA B*5301 (Homo sapiens, UniProt P01889, A329T/A93T/A95T/C349S/D201E/D98Y/E176V/E187L/E204Q/E69T/G107R/I218V/K202T/L105A/L119I/N104I/Q94N/R106L/R155S/R180L/S101N/S121R/S35A/S48A/T118I/V127L/V306I/V36M/Y140S/Y91F)
H-2 D^d = H-2 D^d (Mus musculus, UniProt P01900)
HLA B*5101 = HLA B*5101 (Homo sapiens, UniProt P01889, A329T/A93T/A95T/C349S/D138N/D201E/D98Y/E187L/E204Q/E69T/G107R/I218V/K202T/L105A/L119W/N104I/Q94N/R106L/R155S/R180L/S101N/S121T/S35A/S48A/V306I/V36M/Y195H/Y91F)
HLA B*5801 = HLA B*5801 (Homo sapiens, UniProt P01889, A329T/C349S/D201E/D98Y/E176V/E187L/E204Q/E69T/G107R/I218V/I90N/K202T/L105A/L119I/N104I/N87E/Q89R/Q94S/R106L/R155S/R180L/R86G/S101N/S121R/S35A/S48A/T118I/V127L/V306I/V36M/Y140S/Y91M)
H-2 D^b = H-2 D^b (Mus musculus, UniProt P01899)
HLA B*3501 = HLA B*3501 (Homo sapiens, UniProt P01889, A329T/A93T/A95T/C349S/D201E/D98Y/E176V/E187L/E204Q/E69T/I218V/K202T/L119I/Q94N/R155S/R180L/S121R/S35A/S48A/T118I/V127L/V306I/V36M/Y140S/Y91F)
HLA B*1503 = HLA B*1503 (Homo sapiens, UniProt P01889, A329T/A93T/A95T/C349S/D201E/D98Y/E187L/E204Q/K202T/N87E/Q94N/R155S/R180L/S121R/S35A/V306I/V36M/Y140S/Y91S); assay: biochemical

H-2 K^d, sequence (P01887 21-119): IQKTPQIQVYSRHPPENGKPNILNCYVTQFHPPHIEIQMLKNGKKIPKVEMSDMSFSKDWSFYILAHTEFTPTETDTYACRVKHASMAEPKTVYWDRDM
H-2 K^d, sequence (P01902 22-368): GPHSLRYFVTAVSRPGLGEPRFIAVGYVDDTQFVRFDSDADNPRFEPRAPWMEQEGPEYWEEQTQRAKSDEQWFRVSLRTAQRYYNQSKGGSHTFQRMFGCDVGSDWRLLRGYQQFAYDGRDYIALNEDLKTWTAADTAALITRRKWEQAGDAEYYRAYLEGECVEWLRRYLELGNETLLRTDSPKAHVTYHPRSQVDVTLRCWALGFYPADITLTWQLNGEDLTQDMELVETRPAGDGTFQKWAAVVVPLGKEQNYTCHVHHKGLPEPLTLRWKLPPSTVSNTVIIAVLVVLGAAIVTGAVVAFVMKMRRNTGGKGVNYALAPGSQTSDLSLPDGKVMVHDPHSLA
H-2 K^k, sequence (P01887 21-119): as the sequence (P01887 21-119) above
H-2 K^k, sequence (P04223 22-369): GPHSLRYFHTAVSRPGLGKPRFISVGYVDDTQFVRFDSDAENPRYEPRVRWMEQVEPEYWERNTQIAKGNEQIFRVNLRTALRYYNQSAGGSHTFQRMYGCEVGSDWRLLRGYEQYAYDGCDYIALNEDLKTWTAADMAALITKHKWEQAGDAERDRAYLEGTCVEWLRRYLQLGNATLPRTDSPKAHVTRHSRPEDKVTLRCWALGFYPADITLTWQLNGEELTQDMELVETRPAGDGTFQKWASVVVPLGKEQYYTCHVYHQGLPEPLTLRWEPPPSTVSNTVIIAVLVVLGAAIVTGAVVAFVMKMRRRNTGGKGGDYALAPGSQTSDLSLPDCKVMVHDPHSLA
H-2 D^b, sequence (P01887 21-119): as the sequence (P01887 21-119) above
H-2 D^b, sequence (P01899 25-362): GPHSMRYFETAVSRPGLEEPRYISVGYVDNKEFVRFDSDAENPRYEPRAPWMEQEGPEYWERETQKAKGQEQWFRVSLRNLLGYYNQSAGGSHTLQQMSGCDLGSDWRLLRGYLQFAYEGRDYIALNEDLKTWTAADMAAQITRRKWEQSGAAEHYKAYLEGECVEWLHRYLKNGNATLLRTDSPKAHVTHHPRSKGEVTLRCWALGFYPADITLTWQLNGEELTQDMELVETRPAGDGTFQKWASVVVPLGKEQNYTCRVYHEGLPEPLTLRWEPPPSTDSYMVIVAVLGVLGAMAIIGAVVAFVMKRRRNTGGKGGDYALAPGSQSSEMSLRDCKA
H-2 D^d, sequence (P01900 whole entry, looked up): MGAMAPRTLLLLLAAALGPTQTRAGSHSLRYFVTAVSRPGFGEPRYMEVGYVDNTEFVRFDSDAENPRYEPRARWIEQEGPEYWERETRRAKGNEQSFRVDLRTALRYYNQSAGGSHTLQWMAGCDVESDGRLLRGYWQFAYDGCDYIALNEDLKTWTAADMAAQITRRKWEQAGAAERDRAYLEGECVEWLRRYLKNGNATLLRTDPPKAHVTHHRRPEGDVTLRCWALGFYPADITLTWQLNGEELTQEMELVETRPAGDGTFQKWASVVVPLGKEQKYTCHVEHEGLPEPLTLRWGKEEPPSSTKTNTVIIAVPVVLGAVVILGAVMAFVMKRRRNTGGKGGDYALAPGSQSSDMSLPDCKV

Sequence | Normalized average relative binding affinity(ARB) (HLA A*3201) | Normalized average relative binding affinity(ARB) (H-2 K^k) | Normalized average relative binding affinity(ARB) (HLA B*5401) | Normalized average relative binding affinity(ARB) (HLA B*5802) | Normalized average relative binding affinity(ARB) (H-2 K^d) | Normalized average relative binding affinity(ARB) (HLA B*1501) | Normalized average relative binding affinity(ARB) (HLA A*6802) | Normalized average relative binding affinity(ARB) (HLA B*0801) | Normalized average relative binding affinity(ARB) (HLA A*3001) | Normalized average relative binding affinity(ARB) (HLA B*5301) | Normalized average relative binding affinity(ARB) (H-2 D^d) | Normalized average relative binding affinity(ARB) (HLA B*5101) | Normalized average relative binding affinity(ARB) (HLA B*5801) | Normalized average relative binding affinity(ARB) (H-2 D^b) | Normalized average relative binding affinity(ARB) (HLA B*3501) | Normalized average relative binding affinity(ARB) (HLA B*1503)
XXXXXXXPX [3064.0153] | 0.87 | 0.44 | 0.72 | 0.16 | 0.75 | 0.35 | 0.33 | 0.73 | 0.80 | 0.15 | 0.73 | 0.51 | 0.18 | 1.0 | 0.64 | 0.30
XXXXXNXXX [3064.0112] | 0.73 | 0.32 | 0.29 | 1.0 | 0.22 | 0.26 | 0.45 | 0.039 | 0.13 | 0.13 | 0.39 | 0.40 | 0.027 | 0.56 | 0.16 | 0.0067
XXXXXXXDX [3064.0143] | 0.10 | 0.26 | 0.038 | 0.087 | 0.62 | 0.049 | 0.093 | 0.17 | 0.052 | 0.082 | 0.44 | 0.17 | 0.063 | 0.090 | 0.073 | 0.14
XXXXXXDXX [3064.0123] | 0.026 | 0.030 | 0.28 | 0.022 | 0.051 | 0.10 | 0.37 | 0.072 | 0.014 | 0.049 | 0.053 | 0.15 | 0.066 | 0.66 | 0.12 | 0.051
XXXXXXNXX [3064.0132] | 0.42 | 0.22 | 0.39 | 0.092 | 0.61 | 0.66 | 0.54 | 0.69 | 0.10 | 0.29 | 0.095 | 0.46 | 0.37 | 0.41 | 0.28 | 1.0
XXXXXXHXX [3064.0127] | 0.33 | 0.26 | 0.27 | 0.089 | 0.33 | 0.33 | 0.49 | 1.0 | 0.082 | 0.070 | 0.075 | 0.27 | 0.18 | 0.062 | 0.15 | 0.18
